{"source": "PubChem BioAssay AID463206", "about": "(Broad Institute, 2010)", "note": "Activity calls are given as the source filed them.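 The calls were made as follows: active = caspase luminescence falls with dose and the half-maximal concentration AC50 from the fitted curve is at or below a set limit; inconclusive = flat fit at 30 to 70% signal loss, or invalid fit; inactive = AC50 above the limit, or signal rises instead.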", "data": [{"system": "INS-1E cytokine-induced caspase-3/7, Caspase-Glo luminescence, 48 h", "experiment": "suppression of cytokine-driven beta-cell apoptosis – INS-1E rat cells, luminescence, orthogonal assay for beta-cell apoptosis protection project, dose response (AID 463206)", "values": [{"smiles": "Cc1sc2ncnc(N3CCN(S(=O)(=O)c4ccc(C(C)(C)C)cc4)CC3)c2c1C", "AC50": "> 26 µM (inactive)"}, {"smiles": "Cc1cccnc1CCNCc1c(C(=O)N2C[C@@H](C)O[C@@H](C)C2)nc2ccc(Cl)cn12", "AC50": "> 26 µM (inactive)"}, {"smiles": "C/C(=N\\NC(=O)COc1ccccc1-c1ccccc1)c1ccccn1", "AC50": "> 26 µM (inactive)"}, {"smiles": "COc1ccc(C(=O)CSc2n[nH]c(=O)n2Cc2ccco2)cc1", "AC50": "> 26 µM (inactive)"}, {"smiles": "Cc1sc2ncnc(N3CCN(S(=O)(=O)c4ccccc4)CC3)c2c1C", "AC50": "> 26 µM (inactive)"}, {"smiles": "O=C(Nc1ccc2nc3n(c(=O)c2c1)CCCCC3)c1c(F)ccc([N+](=O)[O-])c1F", "AC50": "> 26 µM (inactive)"}, {"smiles": "CCCCOc1ccc(C(=O)NNC(=S)NC(=O)CC)cc1", "AC50": "> 26 µM (inactive)"}, {"smiles": "Cc1ccc(Sc2cc(C)nc(-c3ccccn3)n2)cc1", "AC50": "> 12 µM (inactive)"}, {"smiles": "COc1ccc(/C=C2\\CN(Cc3ccccc3)C/C(=C\\c3ccc(OC)c(O)c3)C2=O)cc1O", "AC50": "> 26 µM (inactive)"}, {"smiles": "Cc1cc([N+](=O)[O-])nn1Cc1ccc(C(=O)N/N=C/c2ccc(O)cc2O)cc1", "AC50": "> 26 µM (inactive)"}, {"smiles": "CCOC(=O)c1c(C)[nH]c(C(=O)OCC(=O)NC(C)(C)C)c1C", "AC50": "> 26 µM (inactive)"}, {"smiles": "COc1ccccc1NC1=C(N2CCCCC2)C(=O)c2ccccc2C1=O", "AC50": "> 26 µM (inactive)"}, {"smiles": "O=C(CNC(=O)c1ccccc1)N/N=C/c1cc(Br)ccc1O", "AC50": "> 26 µM (inactive)"}, {"smiles": "Cc1cc(C(=O)NC2CCCc3c2cnn3-c2cccc(C)c2C)n(C)n1", "note": "(stereo unspecified)", "AC50": "> 26 µM (inactive)"}, {"smiles": "Cc1ccc(/C=N/NC(=O)Cc2ccc(Cl)cc2)c(O)c1", "AC50": "> 26 µM (inactive)"}, {"smiles": "COc1ccc(/C=C/C(=O)NC(=S)Nc2ccccc2C(=O)NC2CCCCC2)cc1", "AC50": "> 26 µM (inactive)"}, {"smiles": "C/C(=N\\NC(=O)c1cc(-c2cccnc2)nc2ccccc12)c1ccccc1O", "AC50": "> 26 µM (inactive)"}, {"smiles": "CCOc1ccc(CN2CCN(Cc3c[nH]c4ccccc34)CC2)cc1", "AC50": "> 26 µM (inactive)"}, {"smiles": "CC(=O)Oc1c(C)cc(Cl)cc1C(=O)Nc1ccc([N+](=O)[O-])cc1Cl", "AC50": "> 26 µM (inactive)"}, {"smiles": "COc1ccc2nc(C)cc(SCC(=O)N/N=C/c3ccc(O)cc3O)c2c1", "AC50": "> 26 µM (inactive)"}, {"smiles": "Cc1ccc(NC(=O)Cc2nn(C)c(=O)c3ccccc23)cc1F", "AC50": "> 26 µM (inactive)"}, {"smiles": "Cn1nccc1C(=O)NC1CCCc2c1cnn2-c1ccccc1F", "note": "(stereo unspecified)", "AC50": "> 26 µM (inactive)"}, {"smiles": "COc1ccc(NS(=O)(=O)c2ccc(N3CCCCC3)c(N)c2)cc1", "AC50": "> 26 µM (inactive)"}, {"smiles": "O=C(NCc1ccccc1)C1=C[C@H](c2csc3ccccc23)C[C@H](OCCCCO)O1", "AC50": "> 26 µM (inactive)"}, {"smiles": "Cc1nc(C(F)(F)F)c(C(=O)N/N=C(\\N)c2ccccn2)s1", "AC50": "> 26 µM (inactive)"}, {"smiles": "CCc1ccc(OC)c(S(=O)(=O)Nc2ccc(Cc3ccncc3)cc2)c1", "AC50": "> 26 µM (inactive)"}, {"smiles": "Cc1cc(C)c(S(=O)(=O)/N=C2\\C=C(Nc3ccc(C(=O)O)cc3)C(=O)c3ccccc32)c(C)c1", "AC50": "> 26 µM (inactive)"}, {"smiles": "COc1ccc(C(NC(=O)C(C)C)c2ccc3cccnc3c2O)cc1", "note": "(stereo unspecified)", "AC50": "> 26 µM (inactive)"}, {"smiles": "COc1ccccc1NC(=O)c1nc(S(=O)(=O)Cc2ccccc2)ncc1Cl", "AC50": "> 26 µM (inactive)"}, {"smiles": "CC(C)(C)c1cc[n+](C2=C([O-])c3ccccc3C(=O)/C2=N\\S(=O)(=O)c2ccccc2)cc1", "AC50": "> 26 µM (inactive)"}, {"smiles": "Cc1nc(C)c(C(=O)N/N=C/c2cc(Br)ccc2O)s1", "AC50": "> 26 µM (inactive)"}, {"smiles": "CC1CCC(C(C)C)C(OC(=O)C[n+]2cc(-c3ccc(Cl)cc3)n3c2CCCCC3)C1", "note": "(stereo unspecified)", "AC50": "> 26 µM (inactive)"}, {"smiles": "Oc1c(Br)cc(Br)cc1/C=N/Nc1ccc(Cl)nn1", "AC50": "> 26 µM (inactive)"}, {"smiles": "C[N+]1=C(/C=C/Nc2ccccc2Cl)C(C)(C)c2ccccc21", "AC50": "> 26 µM (inactive)"}, {"smiles": "CCC1(c2ccc(F)cc2)NC(=O)N(CC(=O)Nc2ccc(-c3nc4ccc(C)cc4s3)cc2)C1=O", "note": "(stereo unspecified)", "AC50": "> 26 µM (inactive)"}, {"smiles": "CC(C)c1cccc(C(C)C)c1OC(=O)[C@H]1OC(C(C)(C)C)=C[C@@H]1c1ccccc1", "AC50": "> 26 µM (inactive)"}, {"smiles": "Cc1ccc(-c2cc(-c3ccc(C)cc3)[n+](-c3ccccc3)c(-c3ccc(C)cc3)c2)cc1", "AC50": "> 26 µM (inactive)"}, {"smiles": "Cc1ccc(NC(=O)C2CCN(S(=O)(=O)c3ccc(N4CCCC4=O)cc3)CC2)cc1Cl", "AC50": "> 26 µM (inactive)"}, {"smiles": "CCN(CC)S(=O)(=O)c1ccc(N2CCN(c3ccccc3OC)CC2)c(N)c1", "AC50": "> 26 µM (inactive)"}, {"smiles": "CCOC(=O)c1ccc(-[n+]2c(-c3ccccc3)cc(-c3ccccc3)cc2-c2ccccc2)cc1", "AC50": "> 26 µM (inactive)"}, {"smiles": "N#Cc1c2ccc([N+](=O)[O-])cc2[n+]([O-])n1-c1ccccc1", "AC50": "> 26 µM (inactive)"}, {"smiles": "O=C(N/N=C/c1cc(Br)ccc1O)C(=O)Nc1ccccc1OC(F)(F)C(F)F", "AC50": "> 26 µM (inactive)"}, {"smiles": "CCCCOc1ccc(-c2cc(C(=O)NNC(=S)NCC)c3ccccc3n2)cc1", "AC50": "> 26 µM (inactive)"}, {"smiles": "NNc1ncnc2scc(-c3ccc(Cl)cc3)c12", "AC50": "> 26 µM (inactive)"}, {"smiles": "O=C(N/N=C/c1cc(Cl)ccc1O)c1cccnc1", "AC50": "> 26 µM (inactive)"}, {"smiles": "CCC(=O)NC(c1cc(Cl)c2cccnc2c1O)C1CC1", "note": "(stereo unspecified)", "AC50": "> 26 µM (inactive)"}, {"smiles": "Cc1ccc(S(=O)(=O)N2CCOCC2)cc1C(=O)Nc1nc(-c2ccccn2)cs1", "AC50": "> 26 µM (inactive)"}, {"smiles": "COc1ccccc1C(CCNCc1ccc(N(C)C)cc1)c1ccc(OC(C)C)cc1", "note": "(stereo unspecified)", "AC50": "> 26 µM (inactive)"}, {"smiles": "Cc1nn(C)c(C)c1CN(Cc1nc(CCC(C)C)no1)C(C)C", "AC50": "> 26 µM (inactive)"}, {"smiles": "O=C(N/N=C\\c1c(O)ccc2ccccc12)c1ccc(Cn2cccn2)o1", "AC50": "> 26 µM (inactive)"}, {"smiles": "Cc1sc2ncnc(NC3CCN(Cc4ccccc4)CC3)c2c1C", "AC50": "> 26 µM (inactive)"}, {"smiles": "CCN(CC)c1ccc(/C=N/NC(=O)c2ccc3nc[nH]c3c2)c(O)c1", "AC50": "> 26 µM (inactive)"}, {"smiles": "O=[N+]([O-])c1ccc(-[n+]2ccc3ccccc3c2)c([N+](=O)[O-])c1", "AC50": "> 26 µM (inactive)"}, {"smiles": "CC(=O)Nc1ccc(S(=O)(=O)Nc2ccc(N3CCCCC3)cc2)cc1", "AC50": "> 26 µM (inactive)"}, {"smiles": "Nc1c(C(=O)Nc2ccc3c(c2)OCCO3)nnn1Cc1ccccc1Cl", "AC50": "> 26 µM (inactive)"}, {"smiles": "O=C(Nc1cccnc1)c1cccs1", "AC50": "> 26 µM (inactive)"}, {"smiles": "C=C(C=O)C[C@@H]1C[C@H](O)C2OC3C[C@]4(C)OC5/C=C\\CC6OC7C(CC=CCC6OC5CCCC4OC3CC2O1)OC1CC2OC3CC(=O)OC3C[C@@H](C)C[C@@]2(C)OC1C[C@@H]7C", "note": "(stereo partly specified)", "AC50": "> 26 µM (inactive)"}, {"smiles": "COc1cnc(-c2ccccn2)nc1NC(C)C", "AC50": "> 12 µM (inactive)"}, {"smiles": "C=CCN1C(=O)N/C(=C/c2ccc(N3CCOCC3)o2)C1=O", "AC50": "> 12 µM (inactive)"}, {"smiles": "O=C(Nc1ccc(-c2csc(Nc3cccc(C(F)(F)F)c3)n2)cc1)c1cc([N+](=O)[O-])cc(C(F)(F)F)c1", "AC50": "> 26 µM (inactive)"}, {"smiles": "CC(C)CN(C(=O)COC(=O)C12CC3CC(CC(Cl)(C3)C1)C2)c1c(N)n(Cc2ccccc2)c(=O)[nH]c1=O", "AC50": "> 26 µM (inactive)"}, {"smiles": "COc1ccc(-c2ccnc(SCC(=O)N3CCN(c4ccccc4)CC3)n2)cc1", "AC50": "> 26 µM (inactive)"}, {"smiles": "O=[N+]([O-])c1cccc(-c2cn3nc(-c4ccccc4)c(-c4ccccc4)nc3n2)c1", "AC50": "> 26 µM (inactive)"}, {"smiles": "Oc1ccc(N=Nc2ccccc2C(F)(F)F)c2cccnc12", "AC50": "> 26 µM (inactive)"}, {"smiles": "NC(N)=N/N=C/c1ccc(OCc2ccccc2)cc1", "AC50": "> 26 µM (inactive)"}, {"smiles": "O=C(c1cc2sccc2n1Cc1ccc(F)cc1)N1CCN(c2nc3ccccc3s2)CC1", "AC50": "> 26 µM (inactive)"}, {"smiles": "Cc1cccc(NC(=O)c2ccc([N+](=O)[O-])s2)c1C", "AC50": "> 26 µM (inactive)"}, {"smiles": "O=C(CSC1c2ccccc2-c2ccccc21)N/N=C/c1ccccc1O", "AC50": "> 26 µM (inactive)"}, {"smiles": "CCCCCCCCCCOC(=O)Cn1c(COc2cccc(C)c2)[n+](C)c2ccccc21", "AC50": "> 26 µM (inactive)"}, {"smiles": "COc1ccc(NS(=O)(=O)c2ccc(-c3cnc(C4CC4)o3)cc2)cc1OC", "AC50": "> 26 µM (inactive)"}, {"smiles": "CCN(CC)c1ccc(CNc2nc3ccccc3n2CCN2CCCCC2)cc1", "AC50": "> 26 µM (inactive)"}, {"smiles": "Cn1cc(/C=C/c2cc[n+](C)cc2)c2cc(Cl)ccc21", "AC50": "> 26 µM (inactive)"}, {"smiles": "CC1CCC(C(C)C)C(OC(=O)Cn2c(-c3ccc(Br)cc3)[n+](C)c3ccccc32)C1", "note": "(stereo unspecified)", "AC50": "> 26 µM (inactive)"}, {"smiles": "Cc1cc(F)ccc1S(=O)(=O)Nc1ccccc1C(=O)Nc1ccccc1-c1nc2ccccc2[nH]1", "AC50": "> 26 µM (inactive)"}, {"smiles": "COc1ccc(/C=N/NC(=O)c2nc(-c3ccccc3)n(-c3ccccc3)n2)c(O)c1", "AC50": "> 26 µM (inactive)"}, {"smiles": "CCN1C/C(=C/c2cccc([N+](=O)[O-])c2)C(=O)/C(=C/c2cccc([N+](=O)[O-])c2)C1", "AC50": "> 26 µM (inactive)"}, {"smiles": "Cc1cc(N2CCN(C)CC2)ccc1NC(=O)c1c2c(nc3ccccc13)CCN(Cc1ccccc1)C2", "AC50": "14.7 µM"}, {"smiles": "Cc1nc2ccccc2n1/N=C/c1ccc([N+](=O)[O-])s1", "AC50": "> 26 µM (inactive)"}, {"smiles": "Cc1ccc(-c2[nH]ncc2/C=N/n2c(COc3ccccc3C)nc3ccccc3c2=O)cc1", "AC50": "> 26 µM (inactive)"}, {"smiles": "CCCCCCCC[n+]1cccc2c3ccccc3ccc21", "AC50": "> 26 µM (inactive)"}, {"smiles": "O=C(Nc1ccc(F)cc1F)N1CCCN(CCOc2ccccc2)CC1", "AC50": "> 26 µM (inactive)"}, {"smiles": "Cc1occc1C(=O)N/N=C/c1c(O)ccc2ccccc12", "AC50": "> 26 µM (inactive)"}, {"smiles": "CCN(c1ccccc1)S(=O)(=O)c1ccc(NC(=O)c2nc(S(C)(=O)=O)ncc2Cl)cc1", "AC50": "> 26 µM (inactive)"}, {"smiles": "CC1CCC(C(C)C)C(OC(=O)Cn2c(-c3ccccc3)[n+](C)c3ccccc32)C1", "note": "(stereo unspecified)", "AC50": "> 26 µM (inactive)"}, {"smiles": "COC(=O)C[C@]1(C(=O)OC)CN(C#N)N(c2ccc(Cl)cc2)C12c1ccccc1-c1ccccc12", "AC50": "> 26 µM (inactive)"}, {"smiles": "COc1ccc(C2C(C#N)=C(N)Oc3c2ccc2cccnc32)cc1OC", "note": "(stereo unspecified)", "AC50": "> 12 µM (inactive)"}, {"smiles": "O=[N+]([O-])c1c(Nc2ccccn2)cc(Cl)c2nonc12", "AC50": "> 26 µM (inactive)"}, {"smiles": "[O-]c1ccccc1-[n+]1c(-c2ccccc2)cc(-c2ccccc2)cc1-c1ccccc1", "AC50": "> 26 µM (inactive)"}, {"smiles": "CCCc1sc(N/N=C/c2ccccn2)nc1-c1ccc(Br)cc1", "AC50": "> 26 µM (inactive)"}, {"smiles": "COc1cccc(C(=O)Oc2c(Br)cc(Br)cc2/C=N/NC(=O)c2cc(C)[nH]n2)c1", "AC50": "> 26 µM (inactive)"}, {"smiles": "Cc1ccc(NC2=C(N3CCCCC3)C(=O)c3ccccc3C2=O)cc1", "AC50": "> 26 µM (inactive)"}]}]}
